According to patent publication US20130029983A1, “AMINOTHIENOPYRIDAZINE INHIBITORS OF TAU ASSEMBLY” (priority 2009, published 2013):
Read-outs that look alike come from different tables or passages of the source.

Tests used:
[1] = target: T1, K18PL tau (Homo sapiens, UniProt P10636, P618L); assay: Heparin-induced K18PL tau fibrillization assay monitored by ThT fluorescence; format: biochemical; settings: for Emax: read-out: K18PL (ThT) maximal percent inhibition achieved in the assay; for inhibition at 80 µM: highest tested concentration (80 μM), read-out: Tau ThT Assay % Inhib.
T1 construct: (K18PL; amino acids 244-369); made in house
T1 sequence (P10636 561-686 P618L): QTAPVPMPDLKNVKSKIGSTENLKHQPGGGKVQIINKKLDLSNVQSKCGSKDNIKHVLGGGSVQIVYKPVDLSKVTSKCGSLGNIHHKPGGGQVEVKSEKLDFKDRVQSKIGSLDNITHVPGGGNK
Experimental: Tau fibril formation reactions were performed essentially as described (Crowe, A., Ballatore, C., Hyde, E., Trojanowski, J. Q., and Lee, V. M. Y. (2007) Biochemical and Biophysical Research Communications 358, 1-6). K18PL (2 μl of a 30 μM stock that also contained 0.24 μM Alexa Red-labeled K18PL) was dispensed into black 1536-well plates (Grenier) using a solenoid-based dispenser. Following transfer of 23 nL of test compound or DMSO vehicle by a pin tool from compound library plates, 2 μl/well of 40 μM heparin in reagent buffer was dispensed and the plate was centrifuged for 15 s at 1000 rpm in a table-top centrifuge. The fibrillization reaction proceeded for 6 hours at 37° C. in a humidified incubator (Kalypsys).
K18PL fibril formation was quantified with a ThT assay as previously described (Crowe, A., Ballatore, C., Hyde, E., Trojanowski, J. Q., and Lee, V. M. Y. (2007) Biochemical and Biophysical Research Communications 358, 1-6). Briefly, 1 μl/well of 62.5 μM ThT (Sigma) in 100 mM glycine, pH 8.5 (12.5 μM final concentration) was dispensed into 1536-well plates after completion of the fibrillization reaction and incubated at room temperature for 1 hour. Plates were read on an Envision fluorescence plate reader with an excitation of 450 nm and an emission setting of 510 nm.
Compound effects on tau assembly were determined for the ThT and FP assays using the formula 1−(Fcompound− FDMSO)/( Fcontrol− FDMSO), where Fcontrol denotes the median plate fluorescence values (ThT assay) or mP values (FP assay) of the non-fibrillizing K18 KD control wells, FDMSO denotes the median value of the DMSO control wells, and Fcompound denotes the compound well values. The resulting values were multiplied by 100 to obtain the percent inhibition of tau fibril formation.
(§1) The solubility of test compounds in the sodium acetate buffer used for subsequent fibrillization reactions was determined by turbidimetric measurements. Compounds were then evaluated in a heparin-induced tau assembly assay, in which the fibrillization of the truncated K18 tau fragment (comprised of four MT-binding repeats) bearing the P301L mutation (K18PL) found in FTDP-17, was monitored by thioflavine-T (ThT) binding and fluorescence (FIG. 3A). (Crowe, A.; et al., Identification of aminothienopyridazine inhibitors of tau assembly by quantitative high-throughput screening. Biochemistry 2009, 48, 7732-45.) The inhibitory activity of test compounds was then confirmed with an orthogonal sedimentation assay in which compound-treated fibrillizing mixtures were centrifuged and quantitation of K18PL tau in the soluble and insoluble fraction was performed by densitometric analyses of SDS-PAGE (FIG. 3B). […] Thus, the tau fibrillization assay was repeated in which both DMSO- and compound-treated mixtures were initially centrifuged for 30 min. prior to incubation (i.e., at time zero of the fibrillization reaction) to remove any pelletable material.

[2] = target: T1, K18PL tau; assay: K18PL tau centrifugation (sedimentation) assay, SDS-PAGE densitometry; format: biochemical; settings: for Emax: read-out: K18PL Sed. Assay, maximal percent inhibition of K18PL fibrillization; for Tau Cent. Assay % Soluble: Table 4, K18PL tau centrifugation assay
Experimental: (§2) The determination of compound-induced effects on the amount of tau that remains soluble upon centrifugation, and EM visualization of tau species following incubation with test compounds, were as previously described (Crowe, A., Ballatore, C., Hyde, E., Trojanowski, J. Q., and Lee, V. M. Y. (2007) Biochemical and Biophysical Research Communications 358, 1-6).
as §1

[3] = target: T2, full-length tau (tau40) (Homo sapiens, UniProt P10636); assay: Tau40 fibrillization sedimentation assay; format: biochemical; settings: SDS-PAGE of soluble and insoluble fractions after centrifugation; for Emax: read-out: Tau40 Sed. Assay, maximal percent inhibition of tau40 fibrillization
T2 construct: Full length tau (Tau40; amino acids 1-441); made in house
T2 sequence (P10636 1-441 isoform P10636-8): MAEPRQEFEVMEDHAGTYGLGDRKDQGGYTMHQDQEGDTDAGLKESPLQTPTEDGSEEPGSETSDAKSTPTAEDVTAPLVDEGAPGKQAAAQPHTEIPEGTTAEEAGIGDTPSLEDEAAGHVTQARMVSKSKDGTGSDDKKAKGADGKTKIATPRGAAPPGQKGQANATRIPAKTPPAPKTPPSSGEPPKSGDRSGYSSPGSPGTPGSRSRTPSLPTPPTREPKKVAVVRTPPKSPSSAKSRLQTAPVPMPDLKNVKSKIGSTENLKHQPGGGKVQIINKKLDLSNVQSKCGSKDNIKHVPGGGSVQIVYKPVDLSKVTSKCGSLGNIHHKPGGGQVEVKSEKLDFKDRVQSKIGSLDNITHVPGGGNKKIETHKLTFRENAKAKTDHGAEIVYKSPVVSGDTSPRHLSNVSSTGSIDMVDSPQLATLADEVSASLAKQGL
Experimental: as §2, with “1-6). […]” for “1-6).”

[4] = Brain and plasma drug levels 1 h after i.p. administration (LC-MS/MS); format: in vivo; settings: mice; for B/P, ratio between brain/plasma drug level: 1 h after i.p. 5 mg/Kg
Experimental: Test compounds underwent preliminary evaluations of brain penetration, in which 5 mg/Kg of each compound was administered intraperitoneally (i.p.) to a group of three normal mice; drug levels in brain and plasma were determined at a single time-point (1 h) by LC-MS/MS using pre-validated calibration curves. […] However, both esters appeared to have relatively short half-lives in plasma, as indicated by the limited amount of parent drug detected after 1 h from administration of the compounds. […] CNDR-51362 was selected for full PK analysis in which brain and plasma drug levels were determined at six time points (i.e., 30 min, 1 h, 2 h, 4 h, 8 h, and 16 h). The results from this experiment, illustrated in FIG. 6A, confirmed that the total B/P exposure ratio over 16 h is 1.6. […] Finally, in order to investigate the potential for ATPZ congeners to be orally administered, we evaluated brain and plasma level of CNDR-51362 and CNDR-51349 after oral administration of 5 mg/Kg.
Brain tissue was homogenized in 10 mM ammonium acetate, pH 5.7 (1:2; w/v) using a handheld sonic homogenizer. Plasma was obtained from blood that was collected into a 1.5 mL tube containing 0.5M EDTA solution and subjected to centrifugation for 10 min. at 4500 g at 4° C. Aliquots (50 μL) of brain homogenate or plasma were mixed with 0.2 mL of acetonitrile, centrifuged at 15,000 g, and the resulting supernatants were used for subsequent LC-MS/MS analysis. The LC-MS/MS system was comprised of an Aquity HPLC and a TQ MS that was controlled using MassLynx software (Waters Corporation, Milford, Mass., USA). Compounds were detected using multiple reaction monitoring (MRM) of their specific collision-induced ion transitions. Samples (5 μL) were separated on an Aquity BEH C18 column (1.7 μm, 2.1×50 mm) at 35° C. Operation was in positive electrospray ionization mode, with mobile phase A of 0.1% (v/v) formic acid, and B of either acetonitrile or methanol with 0.1% (v/v) formic acid at a flow rate of 0.6 mL/min using a gradient from 5% to 95% B over two min., followed by wash and re-equilibration steps. The MS was operated with a desolvation temperature of 450° C. and a source temperature of 150° C. Desolvation and source nitrogen gas flows were 900 L/hr and 50 L/hr, respectively. Source and MS/MS voltages were optimized for each compound using the MassLynx auto tune utility. Standard curves were generated for each compound from brain homogenate and plasma samples that had compound added at 4, 40, 400 and 4000 ng/mL and extracted as above. Peak areas were plotted against concentration and a 1/x weighted linear regression curve was used to quantify the tissue-derived samples using the average peak area from triplicate injections.

[5] = Turbidimetric solubility in fibrillization buffer; format: physicochemical; settings: 100 mM NaOAc pH 7.0 fibrillization buffer, 1% DMSO
Experimental: Compounds were serially diluted in DMSO to achieve a 2.5 fold dilution series from 20 mM down 8 points to […] on a 384-well master plate (Costar 3672). Aliquots (2 μL) were transferred to a clear 96-well assay plate (Fisher 12-565-501) containing 198 μL fibrillization buffer (100 mM NaOAc pH 7.0) for a 100-fold dilution (200 μM down to 0.3 μM). The plate was incubated with agitation for 2.5 h, and the absorbance at 550, 600, 650 and 700 nm was measured on a Spectramax M5 spectrophotometer. DMSO (1%) in fibrillization buffer served as a control that was subtracted from each data point. The absorbances were averaged and the concentration at which the average absorbance rose above 0.03 AU was an indication of insoluble compound, with solubility limits reported as the previous concentration in the dilution series.

[6] = Table 5, read-out: K18PL (ThT) IC50 value
[7] = SDS-PAGE of soluble and insoluble fractions after centrifugation
[8] = Table 4, logarithm of IC50, K18PL tau ThT fluorescence inhibition, read-out: Tau ThT Assay Log IC50 (converted)

Row | Compound | IC50 [1, 6] [µM] | Emax ([1]; Table 5) [%] | Emax [2, 7] [%] | Tau40 Sed. Assay, maximal percent inhibition of tau40 fibrillization [3] [%] | Emax [3] [%] | Brain penetration ([4]; i.p. 5 mg/Kg, 1 h) | B/P, ratio between brain/plasma drug level [4] | melting point [°C] | K18PL Sed. Assay, maximal percent inhibition of K18PL fibrillization [2, 7] [%] | Water Solubility [5] [µM] | inhibition at 80 µM ([1]; Table 4) [%] | IC50 [1, 8] [µM] | Tau Cent. Assay % Soluble [2] [%]
1 | Nc1scc2c(C(=O)O)nn(-c3ccc(Cl)cc3)c(=O)c12 [CNDR-51348, 5-Amino-3-(4-chlorophenyl)-4-oxo-3,4-dihydrothieno[3,4-d]pyridazine-1-carboxylic acid] | 1.6 | 87 | 79 | 62 | 50 to 60 | lack of brain penetration | 0.023 | > 300 | – | – | – | – | –
2 | CN(C)C(=O)c1nn(-c2ccc(Cl)cc2)c(=O)c2c(N)scc12 [CNDR-51361, 5-Amino-3-(4-chlorophenyl)-N,N-dimethyl-4-oxo-3,4-dihydrothieno[3,4-d]pyridazine-1-carboxamide] | 5.3 | 88 | – | 69 | 50 to 60 | – | 0.44 | – | 69 | 32 | – | – | –
3 | CCNC(=O)c1nn(-c2ccc(Cl)cc2)c(=O)c2c(N)scc12 [CNDR-51365, 5-Amino-3-(4-chlorophenyl)-N-ethyl-4-oxo-3,4-dihydrothieno[3,4-d]pyridazine-1-carboxamide] | 5.6 | 91 | 94 | 57 | 50 to 60 | – | 1.8 | – | – | 32 | – | – | –
4 | CC(C)OC(=O)c1nn(-c2ccc(Cl)cc2)c(=O)c2c(N)scc12 [CNDR-51371, Isopropyl 5-amino-3-(4-chlorophenyl)-4-oxo-3,4-dihydrothieno[3,4-d]pyridazine-1-carboxylate] | 1.5 | 81 | 44 | 61 | 50 to 60 | – | – | 118 to 120 | – | 32 | – | – | –
5 | CCOC(=O)c1nn(-c2ccc(N=[N+]=[N-])cc2)c(=O)c2c(N)scc12 [CNDR-51412, Ethyl 5-amino-3-(4-azidophenyl)-4-oxo-3,4-dihydrothieno[3,4-d]pyridazine-1-carboxylate] | – | – | – | – | – | – | – | 169 to 170 | – | – | 80 | 6.31 | 51
6 | CCOC(=O)c1ccccc1-n1nc(C(=O)OCC)c2csc(N)c2c1=O [CNDR-51419, Ethyl 5-amino-3-(2-(ethoxycarbonyl)phenyl)-4-oxo-3,4-dihydrothieno[3,4-d]pyridazine-1-carboxylate] | – | – | – | – | – | – | – | 176 to 178 | – | – | 65 | 1.26 | 40
7 | CCOC(=O)c1cccc(-n2nc(C(=O)OCC)c3csc(N)c3c2=O)c1 [CNDR-51420, Ethyl 5-amino-3-(3-(ethoxycarbonyl)phenyl)-4-oxo-3,4-dihydrothieno[3,4-d]pyridazine-1-carboxylate] | – | – | – | – | – | – | – | 159 to 160 | – | – | 74 | 2 | 83

More lines, now with the values ahead:

Row | IC50 [1, 6] [µM] | Emax ([1]; Table 5) [%] | Emax [2, 7] [%] | Tau40 Sed. Assay, maximal percent inhibition of tau40 fibrillization [3] [%] | Emax [3] [%] | Brain penetration ([4]; i.p. 5 mg/Kg, 1 h) | B/P, ratio between brain/plasma drug level [4] | melting point [°C] | K18PL Sed. Assay, maximal percent inhibition of K18PL fibrillization [2, 7] [%] | Water Solubility [5] [µM] | inhibition at 80 µM ([1]; Table 4) [%] | IC50 [1, 8] [µM] | Tau Cent. Assay % Soluble [2] [%] | Compound
8 | – | – | – | – | – | – | – | 203 to 205 | – | – | 100 | 6.31 | 66 | CCOC(=O)c1nn(-c2ccccc2Br)c(=O)c2c(N)scc12 [CNDR-51421, Ethyl 5-amino-3-(2-bromophenyl)-4-oxo-3,4-dihydrothieno[3,4-d]pyridazine-1-carboxylate]
9 | – | – | – | – | – | – | – | 163 to 165 | – | – | 87 | 1 | 67 | CCOC(=O)c1nn(-c2cccc(Br)c2)c(=O)c2c(N)scc12 [CNDR-51422, Ethyl 5-amino-3-(3-bromophenyl)-4-oxo-3,4-dihydrothieno[3,4-d]pyridazine-1-carboxylate]
10 | – | – | – | – | – | – | – | 190 to 191 | – | – | 80 | 1.26 | 29 | CCOC(=O)c1nn(-c2cccc(C)c2)c(=O)c2c(N)scc12 [CNDR-51423, Ethyl 5-amino-4-oxo-3-(m-tolyl)-3,4-dihydrothieno[3,4-d]pyridazine-1-carboxylate]
